# Residues, ends and D or L forms follow the SMILES beside them.
# Columns and labels:
# [1] = Ocular tissue concentration of ONL1204 after intravitreal injection in rabbit eye (LC-MS/MS); conditions: rabbit vitreous humor; single dose 0.1 mg/eye IVT, days 0 to 168
# Method: Standards and blanks were vortex mixed. […] Two hundred (200) uL of water was added.
# The samples were then vortex mixed for 5 minutes.
# The samples were dried with nitrogen at 35° C.
# [2] = test system: retinal pigment epithelial cell death; assay: Sodium iodate (NaIO3) challenge study, lesion area by fluorescein angiography; format: in vivo; conditions: rabbit
# Method: The resulting area was then measured.
structure (smiles),measurement,setting,value
CC[C@H](C)[C@H](NC(=O)[C@H](Cc1ccc(O)cc1)NC(=O)[C@H](CC(N)=O)NC(=O)[C@@H](NC(=O)[C@H](C)NC(=O)CNC(=O)[C@H](CC(C)C)NC(=O)[C@H](Cc1ccc(O)cc1)NC(=O)[C@@H](NC(=O)[C@H](Cc1cnc[nH]1)NC(=O)[C@@H](N)Cc1cnc[nH]1)[C@@H](C)CC)C(C)C)C(=O)N[C@@H](Cc1ccc(O)cc1)C(N)=O [ONL1204] (H-HHIYLGAVNYIY-NH2),t1/2 (half-life in the vitreous),[1],279.8 days
same,Lesion size vs negative control,"[2]; 25 ug per eye IVT on Day 0, NaIO3 challenge Day 4",significantly lower than negative control
same,Lesion size vs negative control,"[2]; 100 ug per eye IVT on Day 0, NaIO3 challenge Day 4",significantly lower than negative control
same,Lesion size vs negative control,"[2]; 100 ug per eye IVT on Day 0, NaIO3 challenge Day 14",significantly smaller lesion size then both negative controls and those treated with 25 ug
same,Lesion size vs negative control,"[2]; 100 ug per eye IVT on Day 0, NaIO3 challenge Day 28",significantly smaller lesion size then both negative control animals and those treated with 25 ug
